Measured values published in patent US7728035B2, “Ester derivatives of rhein and their therapeutic use” (Sosei R&D Ltd., priority 2004, dated 2010).

Assays:
[1] = system: clinical signs induced in the EAE model; assay: Experimental Autoimmune Encephalitis (EAE); type: in vivo, Male Lewis rats; settings: 150 mg/kg orally twice a day from the day of inoculation; scored daily from day 7 post-inoculation
Experimental: Experimental Autoimmune Encephalitis (EAE)
Male Lewis rats (250-290 g) (n=10) were injected into both rear foot-pad with 0.1 ml of an emulsion containing equal parts of guinea-pig spinal cord, phosphate buffered saline and incomplete Freund's adjuvant with 8 mg/ml Mycobacterium tuberculosis H37Ra. The compound of Example 1 (150 mg/kg) was dosed orally in a 10% acacia gum vehicle (1 ml/kg) twice a day from the day of inoculation.
Body weights and neurological scores were observed daily from day 7 post-inoculation. The total daily score was calculated for each group and plotted over time. Non-parametric statistical analyses (Kruskal-Wallis) one-way analysis, followed by a Dunn's test, were employed.

TNFα and IL-1β levels = assay: LPS Mouse Assay; type: in vivo, Balb-c mice
Experimental: 7 week old Balb-c mice (n=8) fed and watered ad libitum were dosed at time zero with the compound of Example 1 at 3, 30 and 300 mg/kg in a 1% methylcellulose vehicle by oral gavage (10 ml/kg). 30 minutes after drug treatment mice were intraperitoneally administered with 1 mg/kg LPS (5 ml/kg in normal saline). 2 hours post-LPS challenge blood samples were collected by cardiac puncture under isoflurane anaesthesia. Blood samples were allowed to clot at room temperature for 10 minutes and then put on ice until spun at 6000 g for 3 minutes at 4° C. and then stored at −20° C. until analysis by ELISA for TNFα and IL-1β levels. TNFα and IL-1β levels were reported as pg/ml of serum (mean±SEM) significance was evaluated by a Dunnett's test followed by a Kruskal-Wallis one way analysis followed by a Dunn's test.

cytokine production = assay: in vitro cytokine production (cellular assay); type: cell-based; settings: assay not described
T-cell proliferation = assay: in vitro T-cell proliferation (cellular assay); type: cell-based; settings: assay not described

SMILES | efficacy on clinical signs (neurological scores) in the EAE model [1] | efficacy in the LPS mouse model (summary statement) (TNFα and IL-1β levels; mouse, in vivo) | reduction of TNFα levels post-LPS insult (TNFα and IL-1β levels; serum, ELISA, 3, 30 and 300 mg/kg by oral gavage 30 minutes before 1 mg/kg LPS i.p., blood 2 hours post-LPS, all three doses, dose-dependant) | reduction of IL-1β levels post-LPS (TNFα and IL-1β levels; serum, ELISA, oral gavage 30 minutes before 1 mg/kg LPS i.p., blood 2 hours post-LPS, at the top two doses (30 and 300 mg/kg)) | inhibition of cytokine production (cytokine production) | inhibition of T-cell proliferation (T-cell proliferation)
O=C(O)c1cc(OC(=O)C2CCOCC2)c2c(c1)C(=O)c1cccc(OC(=O)C3CCOCC3)c1C2=O [Example 1, 4,5-Bis(tetrahydropyran-4-carbonyloxy)-9,10-dioxo-dihydroanthracene-2-carboxylic acid] | significant efficacy | efficacy | significant efficacy on reducing TNFα levels | reduced IL-1β levels |  | 
O=C(O)c1cc(O)c2c(c1)C(=O)c1cccc(O)c1C2=O [rhein, 1,8-dihydroxyanthraquinone-3-carboxylic acid] |  |  |  |  | fail to produce a response | fail to produce a response
